Where two headings read alike, the source gives them in different places.
Assays:
[1] = target: T1, hPIV-3 HN (UniProt P08492); format: biochemical, hPIV-3 (strain C-243); parameters: rows headed: HI Mean IC50; hPIV-3 HN; 3 independent experiments; fold improvement in HI assay; other: versus 6; hPIV-3 HN HI IC50; other: text; other: text, unit given as M
T1 sequence (P08492 1-572): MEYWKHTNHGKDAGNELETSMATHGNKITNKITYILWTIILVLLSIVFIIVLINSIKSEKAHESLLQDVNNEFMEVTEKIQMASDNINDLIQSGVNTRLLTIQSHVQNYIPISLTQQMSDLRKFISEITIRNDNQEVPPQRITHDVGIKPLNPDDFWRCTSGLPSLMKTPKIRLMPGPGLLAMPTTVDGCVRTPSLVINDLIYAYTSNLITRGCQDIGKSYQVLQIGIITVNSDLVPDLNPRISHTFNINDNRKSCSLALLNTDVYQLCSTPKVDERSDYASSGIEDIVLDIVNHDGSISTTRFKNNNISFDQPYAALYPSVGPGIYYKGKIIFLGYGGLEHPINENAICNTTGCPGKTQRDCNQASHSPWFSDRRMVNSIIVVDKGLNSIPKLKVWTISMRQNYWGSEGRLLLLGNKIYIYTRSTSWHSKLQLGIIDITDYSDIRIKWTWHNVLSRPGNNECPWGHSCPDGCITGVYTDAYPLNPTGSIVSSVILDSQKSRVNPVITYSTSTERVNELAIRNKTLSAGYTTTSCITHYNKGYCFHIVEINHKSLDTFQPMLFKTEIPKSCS

[2] = target: hPIV-1 NI (Human parainfluenza 1 virus, UniProt P16071); test: biochemical
Sequence of hPIV-1 NI (P16071 whole entry): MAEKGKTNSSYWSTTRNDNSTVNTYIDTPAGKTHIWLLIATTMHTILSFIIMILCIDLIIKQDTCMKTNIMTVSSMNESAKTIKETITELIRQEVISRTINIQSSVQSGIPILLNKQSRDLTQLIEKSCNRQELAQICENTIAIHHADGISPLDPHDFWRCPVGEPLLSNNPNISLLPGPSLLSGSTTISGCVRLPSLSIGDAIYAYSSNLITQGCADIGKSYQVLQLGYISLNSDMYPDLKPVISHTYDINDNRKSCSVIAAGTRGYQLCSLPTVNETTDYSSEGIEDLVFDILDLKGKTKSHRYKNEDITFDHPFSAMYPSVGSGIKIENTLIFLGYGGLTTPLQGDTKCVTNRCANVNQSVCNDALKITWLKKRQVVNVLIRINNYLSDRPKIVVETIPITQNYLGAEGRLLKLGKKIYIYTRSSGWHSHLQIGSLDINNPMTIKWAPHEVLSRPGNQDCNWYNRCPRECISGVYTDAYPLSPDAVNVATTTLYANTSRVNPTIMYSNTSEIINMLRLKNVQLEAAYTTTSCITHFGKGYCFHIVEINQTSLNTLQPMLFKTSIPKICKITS
Protocol: IC50 values for a number of compounds of the first aspect were determined by standard assay methods previously described in Guillon, P et al, Nature Communications (2014).

[3] = target: T2, hPIV-3 HN (Human parainfluenza 3 virus, UniProt P08492); format: biochemical, hPIV-3 (strain C-243); settings: Table 5; read-out: hPIV-3 NI (IC50 values)
[4] = target: T1, hPIV-3 HN; format: biochemical, hPIV-3 (strain C-243); parameters: rows headed: NI Mean IC50; hPIV-3 HN; 3 independent experiments; Ki; Km value for MUN; other: whole hPIV-3 virus, [I]=0; fold improvement in NI assay; other: versus 6; hPIV-3 HN NI IC50; other: text; other: text, unit given as M
[5] = target: T1, hPIV-3 HN; format: biochemical, hPIV-3 (strain C-243); parameters: rows headed: NI hPIV-3 IC50; settings: read-out: NI hPIV-3 IC50
[6] = tested on: hPIV-3; test: In situ ELISA virus growth inhibition; format: cell-based, hPIV-3 (strain C-243)
[7] = target: T1, hPIV-3 HN; format: biochemical, hPIV-3 (strain C-243); parameters: rows headed: NI Mean IC50; hPIV-3 HN; 3 independent experiments; Ki; Km value for MUN; other: whole hPIV-3 virus, [I]=0; fold improvement in NI assay; other: versus 6; hPIV-3 HN NI IC50; other: text; other: text, unit given as M; remark: listed apart in the source
[8] = tested on: LLC-MK2 cells; test: MTT assay for compound cytotoxicity; settings: 48 h, 30 μM, highest concentration tested
Protocol: Infection was performed in duplicate and continued for 1 h at 37° C. with gentle agitation every 15 min. Inocula were removed and replaced with 500 μL/well of each respective 2 μM compound dilution (in EMEMinf).

[9] = target: T2, hPIV-3 HN; format: binding; settings: 20 μM hPIV-3 HN, protein:ligand 1:100
[10] = tested on: hPIV-3; test: Virus growth inhibition assay, titration of progeny virus (focus forming assay) in LLC-MK2 cells; format: cell-based, hPIV-3 (strain C-243)
[11] = Table 2 prints no unit, μM, hPIV-3 HN, 3 independent experiments, read-out: HI Mean IC50
[12] = Table 2 prints no unit, μM, hPIV-3 HN, 3 independent experiments, read-out: NI Mean IC50
[13] = Human respirovirus 3, Table 4, A549 cells, hPIV-3, read-out: Cell-based ELISA IC50

Work on `COCc1cn([C@H]2C=C(C(=O)O)O[C@@H]([C@H](O)[C@H](O)CO)[C@@H]2NC(=O)C(C)C)nn1` [Compound 9, Sodium 2,6-anhydro-3,4,5-trideoxy-5-isobutyramido-4-(4-methoxymethyl-[1,2,3,]triazol-1-yl)-D-glycero-D-galacto-non-2-enonate] yielded an IC50 [1, 11] of 13.8 µM, an IC50 ([1]; read-out: hPIV-3 HN HI IC50) of 13.8 µM and an IC50 [2] of 0.489 µM. It also gave an IC50 [3] of 13.1 µM, an IC50 [4, 12] of 14.2 µM and an IC50 ([4]; read-out: hPIV-3 HN NI IC50) of 14.2 µM.

Work on `COCc1cn(C2C(NC(=O)C(C)C)C(C(O)C(O)CO)OC(F)(C(=O)O)C2F)nn1` (stereo not shown) [I-104] yielded an IC50 ([5]; Table 4) of 4 µM and an IC50 [6, 13] of 25 µM.

`CC(C)C(=O)NC1C([C@H](O)[C@H](O)CO)OC(F)(C(=O)O)C(F)C1n1cc(-c2ccccc2)nn1` (stereo partly shown) [I-79] was tested, and the IC50 ([5]; Table 4) was 63 µM and the IC50 [6, 13] was 45 µM.

Work on `CC(=O)N[C@H]1[C@H]([C@H](O)[C@H](O)CO)O[C@@](Oc2ccc3c(C)cc(=O)oc3c2)(C(=O)O)C[C@@H]1O` [MUN, 2′-(4-methylumbelliferyl) […]-D-N-acetylneuraminide] yielded a Km ([7]; read-out: Km value for MUN) of 5.1 mM.

`CC(=O)N[C@H]1[C@H]([C@H](O)[C@H](O)CO)OC(C(=O)[O-])=C[C@@H]1n1cc(-c2ccccc2)nn1.[Na+]` [Compound 8, Sodium 5-acetamido-2,6-anhydro-3,4,5-trideoxy-4-(4-phenyl-[1,2,3,]triazol-1-yl)-D-glycero-D-galacto-non-2-enonate] was tested, and the IC50 [1, 11] was 4.58 µM, the IC50 ([1]; read-out: hPIV-3 HN HI IC50) was 4.6 µM and the “Cytotoxic effect (MTT)” value [8] was “No cytotoxic effect”. For the same compound, the IC50 [2] was 168 µM, the “Relative STD NMR effect, ArH4′” value ([9]; reference signal) was 100% and the “Relative STD NMR effect, ArH2′ ArH6′” value ([9]; relative to ArH4′) was 92%. The “Relative STD NMR effect, ArH3′ ArH5′” value ([9]; relative to ArH4′) was 100%, the “Relative STD NMR effect, H3” value ([9]; relative to ArH4′) was 85% and the “Relative STD NMR effect, H4” value ([9]; relative to ArH4′) was 59%. For the same compound, the “Relative STD NMR effect, H5” value ([9]; relative to ArH4′) was 50%, the “Relative STD NMR effect, H6” value ([9]; relative to ArH4′) was 49% and the “Relative STD NMR effect, H7” value ([9]; relative to ArH4′) was 30%. The “Relative STD NMR effect, H8” value ([9]; relative to ArH4′) was 30%, the “Relative STD NMR effect, H9” value ([9]; relative to ArH4′) was 12% and the “Relative STD NMR effect, H9′” value ([9]; relative to ArH4′) was 18%. The “Relative STD NMR effect, NHAc” value ([9]; relative to ArH4′) was 41%, the “Relative STD NMR effect, Triazole CH” value ([9]; relative to ArH4′) was 63% and the IC50 [3] was 5.85 µM. For the same compound, the IC50 [4, 12] was 6.51 µM and the IC50 ([4]; read-out: hPIV-3 HN NI IC50) was 6.5 µM.

Compound `COCc1cn([C@H]2C=C(C(=O)O)O[C@@H]([C@H](O)[C@H](O)CO)[C@@H]2NC(C)=O)nn1` [Compound 7, Sodium 5-acetamido-2,6-anhydro-3,4,5-trideoxy-4-(4-methoxymethyl-[1,2,3,]triazol-1-yl)-D-glycero-D-galacto-non-2-enonate] has an IC50 [1, 11] of 312 µM, an IC50 ([1]; read-out: hPIV-3 HN HI IC50) of 313 µM and an IC50 [2] of 19.8 µM. For the same compound, the IC50 [3] was 148 µM, the IC50 [4, 12] was 154 µM and the IC50 ([4]; read-out: hPIV-3 HN NI IC50) was 154 µM.

`CC(=O)NC1C(N=[N+]=[N-])C=C(C(=O)O)OC1C(O)C(O)CO` (stereo not shown) [Compound 3, 4-azido-4-deoxy-Neu5Ac2en, reference compound] showed an IC50 ([1]; read-out: hPIV-3 HN HI IC50) of 210 µM and an IC50 [4, 12] of 138 µM.

In the case of `CC(C)C(=O)N[C@H]1[C@H]([C@H](O)[C@H](O)CO)OC(C(=O)[O-])=C[C@@H]1n1cc(-c2ccccc2)nn1.[Na+]` [Compound 10, Sodium 2,6-anhydro-3,4,5-trideoxy-5-isobutyramido-4-(4-phenyl-[1,2,3,]triazol-1-yl)-D-glycero-D-galacto-non-2-enonate], the “Cytotoxic effect (MTT)” value [8] is reported as “No cytotoxic effect”, the IC50 ([6]; Human respirovirus 3, A549, read-out: Virus growth IC50 (in situ ELISA)) is reported as 10.3 ± 0.3 µM and the IC50 ([6]; Human respirovirus 3, LLC-MK2, read-out: Virus growth IC50 (in situ ELISA)) is reported as 2.1 ± 0.6 µM. The IC50 ([6]; Human respirovirus 3, NHBE, read-out: Virus growth IC50 (in situ ELISA)) was 13.9 ± 0.7 µM, the IC50 ([6]; Human respirovirus 3, read-out: Virus growth inhibition IC50, range over all three cell lines) was 2.1 to 13.9 µM and the “times more potent than 6, cell-based assay” value ([6]; LLC-MK2 cells, versus 6) was about 26 times. For the same compound, the inhibition at 2 µM ([10]; Human respirovirus 3, LLC-MK2, 48 h, read-out: Virus growth inhibition (reduction in virus titre)) was 94%.

With `CC(C)C(=O)NC1C(O)C=C(C(=O)O)OC1C(O)C(O)CO` (stereo not shown) [Compound 5, reference compound] the IC50 [1, 11] was 358 µM and the IC50 [4, 12] was 188 µM.

Work on `CC(C)C(=O)N[C@H]1[C@H]([C@H](O)[C@H](O)CO)OC(C(=O)O)=C[C@@H]1N=[N+]=[N-]` [Compound 6, BCX 2798, reference compound] yielded an IC50 [5] of 18 µM, an IC50 ([1]; read-out: HI Mean IC50) of 16.1 µM and an IC50 ([1]; read-out: hPIV-3 HN HI IC50) of 16.1 µM. For the same compound, the IC50 ([6]; LLC-MK2, A549 and NHBE cells, read-out: Virus growth inhibition IC50, range over all three cell lines) was 54.6 to 131 µM, the IC50 ([6]; LLC-MK2 cells, read-out: Virus growth IC50 (in situ ELISA)) was 54.6 ± 3.8 µM and the IC50 ([6]; NHBE cells, read-out: Virus growth IC50 (in situ ELISA)) was 79.3 ± 1 µM. For the same compound, the IC50 ([6]; Table 4, A549 cells, hPIV-3, read-out: Cell-based ELISA IC50) was 130 µM, the “Virus growth inhibition (reduction in virus titre)” value ([10]; 2 μM inhibitor, 48 h, LLC-MK2 cells, low MOI) was 14% and the Ki [7] was 16 µM. For the same compound, the IC50 ([4]; read-out: NI Mean IC50) was 21.5 µM and the IC50 ([4]; read-out: hPIV-3 HN NI IC50) was 21.5 µM.

Work on `CC(C)C(=O)NC1C(N=[N+]=[N-])C(F)C(F)(C(=O)O)OC1[C@H](O)[C@H](O)CO` (stereo partly shown) [I-70] yielded an IC50 ([5]; Table 4) of 6 µM and an IC50 [6, 13] of 14 µM.
